Measured values taken from US20090312310A1 (priority 2006, published 2009).

target: T1, Mdm2/p53 binding (Homo sapiens, UniProt Q00987, L33E); assay: Mdm2/p53 binding assay (HTRF, His-p53 / GST-Mdm2); conditions: His-p53 (aa 1-132) and GST-Mdm2 (aa 25-108, L33E), 6.25 nM each; 25° C., 1 hour
T1 construct: having Mdm2 amino acids at positions 25 to 108
Procedure: Next, a test compound was diluted with protein buffer solution containing 10% DMSO, and this test compound dilution was added in an amount of 4 μL/well to the plate.
These dilutions were added in an amount of 8 μL/well (total reaction solution volume: 20 μl/well). Then, the plate was left at 25° C. for 1 hour.
C (correction factor)=(A−BI)/D
The R value calculated from the well supplemented with His-p53, GST-Mdm2, the test compound, and each antibody was defined as R (sample). The R value calculated from the well supplemented with His-p53, GST-Mdm2, and each antibody but without the test compound was defined as R (control). The R value calculated from the well supplemented with GST-Mdm2, the test compound, and each antibody but without His-p53 was defined as R (background). T/C was calculated from the formula shown below. An IC50 value for Mdm2/p53 binding was calculated by sigmoid fitting using Prism (GraphPad Software).
T/C=(R (sample)−R (background))/(R (control)−R (background))

T1 sequence (Q00987 25-108 L33E, species assumed): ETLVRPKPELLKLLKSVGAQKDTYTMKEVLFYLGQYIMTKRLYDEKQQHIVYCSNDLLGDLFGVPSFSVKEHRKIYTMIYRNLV

Row | IC50 | Compound
1 | 15 nM | CC(C)C1=C(C(=O)N2[C@H](C)CC[C@H]2C(=O)N2CCN(CCO)[C@H](C)C2)SC2=N[C@@](C)(c3ccc(Cl)nc3)[C@@H](c3ccc(Cl)c(F)c3)N21 [Example 260, 2-{(2R)-4-[(5R)-1-{[(5R,6S)-5-(4-chloro-3-fluorophenyl)-6-(6-chloropyridin-3-yl)-3-isopropyl-6-methyl-5,6-dihydroimidazo[2,1-b][1,3]thiazol-2-yl]carbonyl}-5-methyl-L-prolyl]-2-methylpiperazin-1-yl}ethanol]
2 | 19 nM | CC(C)C1=C(C(=O)N2[C@H](C)CC[C@H]2C(=O)N2CCN(CCO)[C@H](C)C2)SC2=N[C@@](C)(c3ccc(Cl)cc3)[C@@H](c3ccc(Cl)cc3)N21 [Example 204, 2-{(2R)-4-[(5R)-1-{[(5R,6S)-5,6-Bis(4-chlorophehyl)-3-isopropyl-6-methyl-5,6-dihydroimidazo[2,1-b][1,3]thiazol-2-yl]carbonyl}-5-methyl-L-prolyl]-2-methylpiperazin-1-yl}ethanol]
3 | 12 nM | CC(C)C1=C(C(=O)N2CCC[C@H]2COC2CCN(C)CC2)SC2=N[C@@](C)(c3ccc(Cl)cc3)[C@@H](c3ccc(Cl)cc3)N21 [Example 211, (5R,6S)-5,6-Bis(4-chlorophenyl)-3-isopropyl-6-methyl-2-{[(2S)-2-{[(1-methylpiperidin-4-yl)oxy]methyl}pyrrolidin-1-yl]carbonyl}-5,6-dihydroimidazo[2,1-b][1,3]thiazole]
4 | 76 nM | CC(C)C1=C(C(=O)N(C)C)SC2=N[C@@](C)(c3ccc(Cl)nc3)[C@@H](c3ccc(Cl)cc3)N21 [Example 220, (5R,6S)-5-(4-Chlorophenyl)-6-(6-chloropyridin-3-yl)-3-isopropyl-N,N,6-trimethyl-5,6-dihydroimidazo[2,1-b][1,3]thiazole-2-carboxamide]
5 | 13 nM | CC(C)C1=C(C(=O)N2[C@H](C)CC[C@H]2C(=O)N2C[C@@H](N)[C@H](F)C2)SC2=N[C@@](C)(c3ccc(Cl)cc3)[C@@H](c3ccc(Cl)cc3)N21 [Example 240, (3R,4R)-1-[(5R)-1-{[(5R,6S)-5,6-Bis(4-chlorophenyl)-3-isopropyl-6-methyl-5,6-dihydroimidazo[2,1-b][1,3]thiazol-2-yl]carbonyl}-5-methyl-L-prolyl]-4-fluoropyrrolidin-3-amine]
6 | 13 nM | CC(C)C1=C(C(=O)N2[C@H](C)CC[C@H]2C(=O)N2CCN(C)[C@H](C)C2)SC2=N[C@@](C)(c3ccc(Cl)cc3)[C@@H](c3ccc(C(F)(F)F)cc3)N21 [Example 180, (5R,6S)-6-(4-Chlorophenyl)-2-{[(2S,5R)-2-{[(3R)-3,4-dimethylpiperazin-1-yl]carbonyl}-5-methylpyrrolidin-1-yl]carbonyl}-3-isopropyl-6-methyl-5-[4-(trifluoromethyl)phenyl]-5,6-dihydroimidazo[2,1-b][1,3]thiazole]
7 | 4 nM | CC(C)C1=C(C(=O)N(C(C)C)[C@H]2C[C@H](N(C)C)C2)SC2=N[C@@](C)(c3ccc(Cl)cc3)[C@@H](c3ccc(Cl)cc3)N21 [Example 219, (5R,6S)-5,6-Bis(4-chlorophenyl)-N-[trans-3-(dimethylamino)cyclobutyl]-N,3-diisopropyl-6-methyl-5,6-dihydroimidazo[2,1-b][1,3]thiazole-2-carboxamide]

Further lines, the compound ahead of its results:

Row | Compound | IC50
8 | CNc1cc([C@]2(C)N=C3SC(C(=O)N4CCC[C@H]4C(=O)N4CCN(C)CC4)=C(C(C)C)N3[C@@H]2c2ccc(Cl)cc2)ccc1Cl [Example 102] | 80 nM
9 | CC(C)C1=C(C(=O)N(C)C)SC2=N[C@@](C)(c3ccc(Cl)cc3)[C@@H](c3ccc(Cl)cc3)N21 [Example 39, (5R,6S)-5,6-Bis(4-chlorophenyl)-3-isopropyl-N,N,6-trimethyl-5,6-dihydroimidazo[2,1-b][1,3]thiazole-2-carboxamide] | 51 nM
10 | CC(C)C1=C(C(=O)N2CC[C@H]2C(=O)N(C)C)SC2=N[C@@](C)(c3ccc(Cl)cc3)[C@@H](c3ccc(Cl)cc3)N21 [Example 93, (2S)-1-{[(5R,6S)-5,6-Bis(4-chlorophenyl)-3-isopropyl-6-methyl-5,6-dihydroimidazo[2,1-b][1,3]thiazol-2-yl]carbonyl}-N,N-dimethylazetidine-2-carboxamide] | 135 nM
11 | CC(C)C1=C(C(=O)N2CCC[C@H]2C(=O)N2CCC[C@H]2C(=O)O)SC2=N[C@@](C)(c3ccc(Cl)cc3)[C@@H](c3ccc(Cl)cc3)N21 [Example 68, 1-{[(5R,6S)-5,6-Bis(4-chlorophenyl)-3-isopropyl-6-methyl-5,6-dihydroimidazo[2,1-b][1,3]thiazol-2-yl]carbonyl}-L-prolyl-L-proline] | 46 nM
12 | CC(=O)N(C)C[C@H](C)N(C)C(=O)C1=C(C(C)C)N2C(=N[C@@](C)(c3ccc(Cl)cc3)[C@H]2c2ccc(Cl)cc2)S1 [Example 74, (5R,6S)—N-{(1S)-2-[Acetyl(methyl)amino]-1-methylethyl}-5,6-bis(4-chlorophenyl)-3-isopropyl-N,6-dimethyl-5,6-dihydroimidazo[2,1-b][1,3]thiazole-2-carboxamide] | 23 nM
13 | CC(C)C1=C(CN2CCNC(=O)C2)SC2=NC(C)(c3ccc(Cl)cc3)C(c3ccc(Cl)cc3)N21 (racemic) [Example 18, 4-{[(5R*,6S*)-5,6-Bis(4-chlorophenyl)-3-isopropyl-6-methyl-5,6-dihydroimidazo[2,1-b][1,3]thiazol-2-yl]methyl}piperazin-2-one] | 87 nM
14 | CC(C)C1=C(C(=O)N(C)[C@H]2C[C@@H](O)C2)SC2=N[C@@](C)(c3ccc(Cl)cc3)[C@@H](c3ccc(Cl)cc3)N21 [Example 164, (5R,6S)-5,6-Bis(4-chlorophenyl)-N-(cis-3-hydroxycyclobutyl)-3-isopropyl-N,6-dimethyl-5,6-dihydroimidazo[2,1-b][1,3]thiazole-2-carboxamide] | 84 nM
15 | CC[C@@H]1CC[C@@H](C(=O)N2CCN(C(C)=O)[C@H](C)C2)N1C(=O)C1=C(C(C)C)N2C(=N[C@@](C)(c3ccc(Cl)cc3)[C@H]2c2ccc(Br)cc2)S1 [Example 155, (5R,6S)-2-{[(2S,5R)-2-{[(3R)-4-Acetyl-3-methylpiperazin-1-yl]carbonyl}-5-ethylpyrrolidin-1-yl]carbonyl}-5-(4-bromophenyl)-6-(4-chlorophenyl)-3-isopropyl-6-methyl-5,6-dihydroimidazo[2,1-b][1,3]thiazole] | 30 nM
16 | CC[C@@H]1CC[C@@H](C(=O)N2C[C@@H](C)N[C@@H](C)C2)N1C(=O)C1=C(C(C)C)N2C(=N[C@@](C)(c3ccc(Cl)cc3)[C@H]2c2ccc(Cl)cc2)S1 [Example 105, (5R,6S)-5,6-Bis(4-chlorophenyl)-2-[((2S,5R)-2-{[(3R,5S)-3,5-dimethylpiperazin-1-yl]carbonyl}-5-ethylpyrrolidin-1-yl)carbonyl]-3-isopropyl-6-methyl-5,6-dihydroimidazo[2,1-b][1,3]thiazole] | 18 nM
17 | CC(C)C1=C(C(=O)N2[C@H](C)CC[C@H]2C(=O)N2CCN(C)[C@H](C)C2)SC2=N[C@@](C)(c3ccc(Cl)cc3)[C@@H](c3ccc(Cl)c(F)c3)N21 [Example 167, (5R,6S)-5-(4-Chloro-3-fluorophenyl)-6-(4-chlorophenyl)-2-{[(2S,5R)-2-{[(3R)-3,4-dimethylpiperazin-1-yl]carbonyl}-5-methylpyrrolidin-1-yl]carbonyl}-3-isopropyl-6-methyl-5,6-dihydroimidazo[2,1-b][1,3]thiazole] | 10 nM
18 | CC(C)C1=C(C(=O)N2CCC[C@H]2c2n[nH]c(=O)o2)SC2=N[C@@](C)(c3ccc(Cl)cc3)[C@@H](c3ccc(Cl)cc3)N21 [Example 89, 5-((2S)-1-{[(5R,6S)-5,6-Bis(4-chlorophenyl)-3-isopropyl-6-methyl-5,6-dihydroimidazo[2,1-b][1,3]thiazol-2-yl]carbonyl}pyrrolidin-2-yl)-1,3,4-oxadiazol-2(3H)-one] | 143 nM
19 | CC(=O)N1CCN(C(=O)CN(CC(C)C)C(=O)C2=C(C(C)C)N3C(=N[C@@](C)(c4ccc(Cl)cc4)[C@H]3c3ccc(Cl)cc3)S2)CC1 [Example 88, (5R,6S)—N-[2-(4-Acetylpiperazin-1-yl)-2-oxoethyl]-5,6-bis(4-chlorophenyl)-N-isobutyl-3-isopropyl-6-methyl-5,6-dihydroimidazo[2,1-b][1,3]thiazole-2-carboxamide] | 29 nM
20 | CCCCC[C@]1(C)N=C2SC(C(=O)N3CCC[C@H]3C(=O)N(C)C)=C(C(C)C)N2[C@@H]1c1ccc(Cl)cc1 (relative stereo) [Example 99 (Cis-Isomer), 1-{[(5R*,6S*)-5-(4-chlorophenyl)-3-isopropyl-6-methyl-6-pentyl-5,6-dihydroimidazo[2,1-b][1,3]thiazol-2-yl]carbonyl}-N,N-dimethyl-L-prolinamide] | 194 nM
